Assay [1] concerns prototrophic yeast strain (CEN.PK113-7D). The experiment in a line: Propidium iodide fluorescence-based CLS method in yeast (incl. high-throughput screening).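 For PI intensity: untreated reference is eight DMSO and water control wells per plate.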 The assay is classed as cell-based, Saccharomyces cerevisiae. The note with it: for Yeast CLS increase: Yes/No call of the screen. In short, it runs like this:
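CEN.PK113-7D aged in SD medium at 30 °C with compounds (rapamycin 0–10 nM; sugars 0–8 mM; screen at single concentrations). At each age point cells were stained with 5 μg/mL PI for 15 min; fluorescence was normalized to OD600, background-subtracted, and survival scaled against boiled-cell control.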

For assay [2] the test system is unchanged. The experiment in a line: Yeast outgrowth in YPD liquid medium (CLS of aged cells). In kind it is cell-based, Saccharomyces cerevisiae. The settings on record: age point day 14. In short, it runs like this: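 Cultures aged at 30 °C in SD medium with double-diluted rapamycin (0–10 nM) or sugars/polyols (0–8 mM). On day 14, 3 µL of culture was transferred into 200 µL YPD and outgrowth read as OD600. Survival expressed relative to day 1 outgrowth (100%).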

Setting [3] is: concentration tested 100 μM, solvent DMSO or water, chronological age point Day 7 (72 h growth = Day 1), lower = more survival.
[4] abbreviates: concentration tested 100 μM, OD600 nm after 24 h in YPD at 30° C.

Where a name gives a salt, the structure may show the parent alone.

Take `CC[C@@]1(O)C(=O)OCc2c1cc1n(c2=O)Cc2cc3c([N+](=O)[O-])cccc3nc2-1` [Rubitecan]: the “Yeast CLS increase” value in assay [1] (concentration tested 100 μM) is listed as “No”. For the same molecule, in assay [1] (setting [3]), the PI intensity is 57,075.3. For the same molecule, the Outgrowth in assay [2] (setting [4]) stood at 0.1.

As to `Nc1nccc(=O)[nH]1` [Isocytosine], in assay [1] (concentration tested 100 μM), the “Yeast CLS increase” value is “No”. Further, the PI intensity in assay [1] (setting [3]) is listed as 68,813.6. The Outgrowth in assay [2] (setting [4]) was found to be 0.1.

`CC(C(=O)O)c1ccccc1` (stereo not drawn) [2-Phenylpropionic acid]: the “Yeast CLS increase” value in assay [1] (concentration tested 100 μM) is on record as “No”. The PI intensity in assay [1] (setting [3]) is recorded as 66,998.4. The same molecule gave an Outgrowth in assay [2] (setting [4]) of 0.1.

Turning to `Cc1cc2c(C(C)C)c(O)c(O)c(C=O)c2c(O)c1-c1c(C)cc2c(C(C)C)c(O)c(O)c(C=O)c2c1O` [Gossypol], the PI intensity in assay [1] (setting [3]) is recorded as 65,220.1. The Outgrowth in assay [2] (setting [4]) was found to be 0.1.

Consider Schisantherin B, for which the “Yeast CLS increase” value in assay [1] (concentration tested 100 μM) is recorded as “No”. The PI intensity in assay [1] (setting [3]) was 68,765.7. The molecule also had an Outgrowth in assay [2] (setting [4]) of 0.1.

For the molecule `O=C1c2c(O)cccc2[C@@H]([C@@H]2O[C@H](CO)[C@@H](O)[C@H](O)[C@H]2O)c2cc(CO)cc(O)c21` [Aloin B], the “Yeast CLS increase” value in assay [1] (concentration tested 100 μM) is “No”. For the same molecule, the PI intensity in assay [1] (setting [3]) is 89,712.0. In assay [2] (setting [4]), this molecule registered an Outgrowth of 0.1.

“Gentamicin (sulfate) [reference compound]”: the “Yeast CLS increase” value in assay [1] (concentration tested 30 μg/mL) is “No”. The PI intensity in assay [1] (concentration tested 30 μg/mL, solvent water, age point Day 7) was 73,296.2. The molecule further yielded an Outgrowth in assay [2] (concentration tested 30 μg/mL, OD600 nm after 24 h in YPD) of 0.1.

Regarding `COS(=O)(=O)[O-].C[N+]1(C)CCC(=C(c2ccccc2)c2ccccc2)CC1` [Diphenmanil (methylsulfate), reference compound], in assay [1] (concentration tested 100 μM), the “Yeast CLS increase” value was “No”. In addition, the PI intensity in assay [1] (setting [3]) is reported as 78,623.4. Further, in assay [2] (setting [4]), the Outgrowth was 0.1.

As for `OCC1=C[C@@H](O)[C@@H]2C=CO[C@@H](O[C@@H]3O[C@H](CO)[C@@H](O)[C@H](O)[C@H]3O)[C@H]12` [Aucubin], the “Yeast CLS increase” value in assay [1] (concentration tested 100 μM) is “No”. Besides, in assay [1] (setting [3]), the PI intensity is 58,414.0. The molecule further yielded an Outgrowth in assay [2] (setting [4]) of 0.1.

Turning to `CCCC(=O)C(=O)O` [2-Oxovaleric acid], in assay [1] (concentration tested 100 μM), the “Yeast CLS increase” value is “No”. Moreover, the PI intensity in assay [1] (setting [3]) is 61,246.4. The Outgrowth in assay [2] (setting [4]) was 0.1.

Regarding `CN(C)c1ccc(O)c2c1C[C@H]1C[C@H]3[C@H](N(C)C)C(O)=C(C(N)=O)C(=O)[C@@]3(O)C(O)=C1C2=O` [Minocycline (hydrochloride), reference compound], in assay [1] (setting [3]), the PI intensity is reported as 71,078.2. The Outgrowth in assay [2] (setting [4]) stood at 0.1.

As to `C[C@@H](O)[C@H]1C(=O)N2C(C(=O)O)=C(S[C@@H]3CN[C@H](CNS(N)(=O)=O)C3)[C@H](C)[C@H]12` [Doripenem (monohydrate), reference compound], in assay [1] (concentration tested 100 μM), the “Yeast CLS increase” value was “No”. The PI intensity in assay [1] (setting [3]) is on record as 69,608.7. The Outgrowth in assay [2] (setting [4]) is listed as 0.1.

On to Catechin, for which the “Yeast CLS increase” value in assay [1] (concentration tested 100 μM) was “No”. Further, the PI intensity in assay [1] (setting [3]) is 63,589.5. The molecule further displayed an Outgrowth in assay [2] (setting [4]) of 0.1.

For the molecule `COc1ccc(C=CC(=O)O)cc1OC` [3,4-Dimethoxycinnamic acid], in assay [1] (concentration tested 100 μM), the “Yeast CLS increase” value is recorded as “No”. For the same molecule, the PI intensity in assay [1] (setting [3]) is on record as 70,914.2. The same molecule displayed an Outgrowth in assay [2] (setting [4]) of 0.1.

For `C=C[C@H]1C[N@@]2CC[C@H]1C[C@H]2[C@H](O)c1ccnc2ccc(OC)cc12` [Quinine (hydrochloride dihydrate), reference compound], the “Yeast CLS increase” value in assay [1] (concentration tested 100 μM) is listed as “No”. Also, the Outgrowth in assay [2] (setting [4]) is given as 0.1.

Consider `NCCCNCCSP(=O)(O)O` [Amifostine, reference compound], for which the “Yeast CLS increase” value in assay [1] (concentration tested 100 μM) is on record as “No”. The PI intensity in assay [1] (setting [3]) is reported as 69,013.2. In addition, the Outgrowth in assay [2] (setting [4]) amounted to 0.2.

As to `C[S+](C)CCC(N)C(=O)O.[Cl-]` (racemic) [DL-Methionine methylsulfonium (chloride)], the “Yeast CLS increase” value in assay [1] (concentration tested 100 μM) is “No”. Further, in assay [1] (setting [3]), the PI intensity is 66,281.7. This molecule came in with an Outgrowth in assay [2] (setting [4]) of 0.1.

With `CC(CCC(=O)NCC(=O)O)C1CCC2C3CCC4CC(O)CCC4(C)C3CC(O)C12C` (stereo not drawn) [Glycodeoxycholic acid (monohydrate)], the “Yeast CLS increase” value in assay [1] (concentration tested 100 μM) is “No”. In addition, in assay [1] (concentration tested 100 μM, solvent DMSO or water, chronological age point Day 7 (72 h growth = Day 1), lower = more survival, (monohydrate)), the PI intensity is given as 73,459.3. This molecule also displayed an Outgrowth in assay [2] (setting [4]) of 0.1.

With `CO/N=C(\C(=O)N[C@@H]1C(=O)N2C(C(=O)O)=C(Cn3ccc(=N)n3CCO)CS[C@H]12)c1csc(N)n1.O=S(=O)(O)O` [Cefoselis (sulfate), reference compound], the “Yeast CLS increase” value in assay [1] (concentration tested 100 μM) is “No”. Also, in assay [1] (setting [3]), the PI intensity is 70,425.6. In assay [2] (setting [4]), this molecule displayed an Outgrowth of 0.1.

Turning to `NC(=O)[C@@H]1CC[C@@H]2CN1C(=O)N2OS(=O)(=O)O` [Avibactam (sodium), reference compound], the “Yeast CLS increase” value in assay [1] (concentration tested 100 μM) is “No”. Moreover, the PI intensity in assay [1] (setting [3]) is on record as 73,562.3. Moreover, the Outgrowth in assay [2] (setting [4]) was determined as 0.1.

For the molecule `O=C(O)C=Cc1ccccc1` [Cinnamic acid], the “Yeast CLS increase” value in assay [1] (concentration tested 100 μM) is on record as “No”. Besides, the PI intensity in assay [1] (setting [3]) is 60,256.3. In addition, in assay [2] (setting [4]), the Outgrowth worked out at 0.1.

For `NC(CO)C(=O)O` (racemic) [DL-Serine], in assay [1] (concentration tested 100 μM), the “Yeast CLS increase” value was “Yes”. Also, the PI intensity in assay [1] (setting [3]) is recorded as 33,155.7. The molecule also gave an Outgrowth in assay [2] (setting [4]) of 1.1.

For the molecule “Streptomycin (sulfate) [reference compound]”, in assay [1] (concentration tested 100 μM), the “Yeast CLS increase” value is given as “No”. The PI intensity in assay [1] (setting [3]) is reported as 60,638.5. The molecule also showed an Outgrowth in assay [2] (setting [4]) of 0.1.

With `Cc1cc(=O)oc2cc(O)ccc12` [4-Methylumbelliferone], the “Yeast CLS increase” value in assay [1] (concentration tested 100 μM) is on record as “No”. The PI intensity in assay [1] (setting [3]) is 90,234.6. The same molecule returned an Outgrowth in assay [2] (setting [4]) of 0.1.

As for `Nc1ncnc2c1ncn2[C@H]1C[C@H](O)[C@@H](CO)O1` [2′-Deoxyadenosine], the “Yeast CLS increase” value in assay [1] (concentration tested 100 μM) is reported as “No”. In addition, the PI intensity in assay [1] (setting [3]) was 70,796.4. Further, the Outgrowth in assay [2] (setting [4]) amounted to 0.1.

On to `CSCCNc1nc(SCCC(F)(F)F)nc2c1ncn2[C@@H]1O[C@H](COP(=O)([O-])OP(=O)([O-])C(Cl)(Cl)P(=O)([O-])[O-])[C@@H](O)[C@H]1O.[Na+].[Na+].[Na+].[Na+]` [Cangrelor (tetrasodium), reference compound], for which the “Yeast CLS increase” value in assay [1] (concentration tested 100 μM) was “No”. In assay [1] (setting [3]), the PI intensity is 83,173.6. The molecule also displayed an Outgrowth in assay [2] (setting [4]) of 0.1.

Turning to `CC(=O)OCc1ccccc1` [Benzyl acetate], in assay [1] (concentration tested 100 μM), the “Yeast CLS increase” value is listed as “No”. The PI intensity in assay [1] (setting [3]) is on record as 74,321.9. In assay [2] (setting [4]), this molecule registered an Outgrowth of 0.1.

As for `C[C@H]1CNCCCN1S(=O)(=O)c1cccc2cncc(F)c12` [Ripasudil, reference compound], the “Yeast CLS increase” value in assay [1] (concentration tested 100 μM) is on record as “No”. In addition, the PI intensity in assay [1] (setting [3]) is 77,962.0. Besides, the Outgrowth in assay [2] (setting [4]) is given as 0.1.

With `NC=O` [Formamide], in assay [1] (concentration tested 100 μM), the “Yeast CLS increase” value is listed as “No”. In assay [1] (setting [3]), the PI intensity was 64,135.2. In assay [2] (setting [4]), this molecule showed an Outgrowth of 0.1.

For the molecule `CC(O)Cn1cnc2c1c(=O)n(C)c(=O)n2C` (stereo not drawn) [Proxyphylline, reference compound], the “Yeast CLS increase” value in assay [1] (concentration tested 100 μM) is on record as “No”. In assay [1] (setting [3]), the PI intensity is 72,232.1. The molecule also showed an Outgrowth in assay [2] (setting [4]) of 0.1.

The record behind these values is patent publication US20250161338A1, “Compounds for Anti-aging Intervention” (AGENCY FOR SCIENCE, TECHNOLOGY AND RESEARCH, priority 2022, published 2025).
